Assay results published in patent US9120774B2 (University of Kansas, priority 2009, dated 2015).
Like-named read-outs stand apart in the source and are kept apart here.

Experiments:
Assay type in all cases: cell-based
[1] = system: PC-3 (androgen independent prostate cancer cells); test: Anti-proliferation activity against PC-3 cells; conditions: for IC50: Homo sapiens
Procedure: (§1) Upon completion of synthesis of library of compounds in Examples 23 and 24, the compounds were evaluated for anti-proliferative activity against SkBr3 (Her2 overexpressing breast cancer cells), MCF-7 (estrogen receptor positive breast cancer cells), HCT-116 (colon cancer cells characterized by wild-type p53), PL45 (pancreatic cancer cells), LNCaP (androgen sensitive prostate cancer cells) and PC-3 (androgen independent prostate cancer cells) cell lines. […] The monosubstituted benzamide variants improved activity.
Cells were maintained in a 1:1 mixture of Advanced DMEM/F12 (Gibco) supplemented with non-essential amino acids, L-glutamine (2 mM), streptomycin (500 ng/mL), penicillin (100 units/mL), and 10% FBS. Cells were grown to confluence in a humidified atmosphere (37° C., 5% CO2), seeded (2000/well, 100 μl) in 96-well plates, and allowed to attach overnight. […] […] Cells incubated in 1% DMSO were used at 100% proliferation, and values were adjusted accordingly. IC50 values were calculated from separate experiments performed in triplicate using GraphPad Prism.

[2] = system: SkBr3 (Her2 overexpressing breast cancer cells); test: Anti-proliferation activity against SkBr3 cells (MTS/PMS)
Procedure: (§2) Upon completion of synthesis of library of compounds in Examples 23 and 24, the compounds were evaluated for anti-proliferative activity against SkBr3 (Her2 overexpressing breast cancer cells), MCF-7 (estrogen receptor positive breast cancer cells), HCT-116 (colon cancer cells characterized by wild-type p53), PL45 (pancreatic cancer cells), LNCaP (androgen sensitive prostate cancer cells) and PC-3 (androgen independent prostate cancer cells) cell lines.
(§3) Cells were maintained in a 1:1 mixture of Advanced DMEM/F12 (Gibco) supplemented with non-essential amino acids, L-glutamine (2 mM), streptomycin (500 ng/mL), penicillin (100 units/mL), and 10% FBS. Cells were grown to confluence in a humidified atmosphere (37° C., 5% CO2), seeded (2000/well, 100 μl) in 96-well plates, and allowed to attach overnight. Compound or GDA at varying concentrations in DMSO (1% DMSO final concentration) was added, and cells were returned to the incubator for 72 hours. At 72 hours, the number of viable cells was determined using an MTS/PMS cell proliferation kit (Promega) per the manufacturer's instructions. Cells incubated in 1% DMSO were used at 100% proliferation, and values were adjusted accordingly. IC50 values were calculated from separate experiments performed in triplicate using GraphPad Prism.
as §3, with “μg/mL),” for “ng/mL),”, “μL)” for “μl)”

[3] = system: MCF-7 (estrogen receptor positive breast cancer cells); test: Anti-proliferation activity against MCF-7 cells (MTS/PMS)
Procedure: as §2, §3
as §3, with “μg/mL),” for “ng/mL),”, “μL)” for “μl)”

[4] = system: LNCaP (androgen sensitive prostate cancer cells); test: Anti-proliferation activity against LNCaP cells; conditions: for IC50: Homo sapiens, LNCaP, 72 hours, MTS/PMS, mean ± standard deviation
Procedure: as §1, §3

[5] = Homo sapiens, SK-BR-3, Table 6, 72 hours, MTS/PMS, mean ± standard deviation, read-out: IC50 SKBr3
[6] = Homo sapiens, MCF7, Table 6, 72 hours, MTS/PMS, mean ± standard deviation, read-out: IC50 MCF-7
[7] = PC-3, Table 6, 72 hours, MTS/PMS, mean ± standard deviation, read-out: IC50 PC-3
[8] = Homo sapiens, SK-BR-3, Table 7, 72 hours, MTS/PMS, mean ± standard deviation, read-out: Anti-proliferation activity SkBr3
[9] = Homo sapiens, MCF7, Table 7, 72 hours, MTS/PMS, mean ± standard deviation, read-out: Anti-proliferation activity MCF-7
[10] = Table 7, read-out: Anti-proliferation activity LnCaP
[11] = PC-3, Table 7, 72 hours, MTS/PMS, mean ± standard deviation, read-out: Anti-proliferation activity PC-3

Structure (SMILES)	IC50 [2, 5] [µM]	IC50 [3, 6] [µM]	IC50 ([4]; Table 6, read-out: IC50 LnCaP) [µM]	IC50 [1, 7] [µM]	also measured
COc1cccc(-c2cc(C(=O)Nc3cc4ccc(OCc5cccnc5)c(C)c4oc3=O)ccc2OC)c1 [3′,6-dimethoxy-N-(8-methyl-2-oxo-7-(pyridin-3-ylmethoxy)-2H-chromen-3-yl)-[1,1′-biphenyl]-3-carboxamide]					IC50 ([1]; PC-3, 24 hr., read-out: IC50): 3.8 µM
COc1cccc(-c2cc(C(=O)Nc3cc4ccc(O[C@@H]5OC(C)(C)[C@H](OC)[C@@H](O)[C@H]5O)c(-c5ccccc5)c4oc3=O)ccc2OC)c1 [26f, N-(7-((2R,3R,4S,5R)-3,4-dihydroxy-5-methoxy-6,6-dimethyltetrahydro-2H-pyran-2-yloxy)-2-oxo-8-phenyl-2H-chromen-3-yl)-3′,6-dimethoxybiphenyl-3-carboxamide]	17.3 ± 3.4	> 100	1 ± 0.1	> 100	
COc1ccc(CN(C(=O)c2ccc(OC)c(-c3cccc(OC)c3)c2)c2ccc3cc(O[C@@H]4OC(C)(C)[C@H](OC)[C@@H](O)[C@H]4O)ccc3c2)cc1 [42c, N-(4-Methoxybenzyl)-N-(6-((2R,3R,4S,5R)-3,4-dihydroxy-5-methoxy-6,6-dimethyl-tetrahydro-2H-pyran-2-yloxy)naphthalen-2-yl)-4-methoxy-3-(3-methoxyphenyl)-benzamide]					IC50 [2, 8]: > 100 µM; IC50 [3, 9]: > 100 µM; IC50 [4, 10]: > 100 µM; IC50 [1, 11]: > 100 µM
COc1cccc(-c2cc(C(=O)Nc3ccc4cc(O[C@@H]5OC(C)(C)[C@H](OC)[C@@H](O)[C@H]5O)ccc4c3)ccc2OC)c1 [42d, N-(6-((2R,3R,4S,5R)-3,4-Dihydroxy-5-methoxy-6,6-dimethyl-tetrahydro-2H-pyran-2-yloxy)naphthalen-2-yl)-4-methoxy-3-(3-methoxyphenyl)-benzamide]					IC50 [2, 8]: 38.9 ± 2.4 µM; IC50 [3, 9]: 46.4 ± 5.3 µM; IC50 [4, 10]: 19.6 ± 1.6 µM; IC50 [1, 11]: 10.9 ± 0.7 µM
COc1ccc(CN(C(=O)c2ccc(OC)c(-c3cccc(OC)c3)c2)c2cnc3cc(O[C@@H]4OC(C)(C)[C@H](OC)[C@@H](O)[C@H]4O)ccc3c2)cc1 [42a, N-(4-Methoxybenzyl)-N-(7-((2R,3R,4S,5R)-3,4-dihydroxy-5-methoxy-6,6-dimethyl-tetrahydro-2H-pyran-2-yloxy)quinolin-3-yl)-4-methoxy-3-(3-methoxyphenyl)-benzamide]					IC50 [2, 8]: > 100 µM; IC50 [3, 9]: > 100 µM; IC50 [4, 10]: > 100 µM; IC50 [1, 11]: > 100 µM
COc1cccc(-c2cc(C(=O)Nc3cnc4cc(O[C@@H]5OC(C)(C)[C@H](OC)[C@@H](O)[C@H]5O)ccc4c3)ccc2OC)c1 [42b, N-(7-((2R,3R,4S,5R)-3,4-Dihydroxy-5-methoxy-6,6-dimethyl-tetrahydro-2H-pyran-2-yloxy)quinolin-3-yl)-4-methoxy-3-(3-methoxyphenyl)-benzamide]					IC50 [2, 8]: 16.5 ± 6.2 µM; IC50 [3, 9]: 13.1 ± 4.1 µM; IC50 [4, 10]: 14.2 ± 0.4 µM; IC50 [1, 11]: 17.6 ± 4.6 µM
COc1cccc(-c2cc(C(=O)Nc3cc4cc(OC)c(O[C@@H]5OC(C)(C)[C@H](OC)[C@@H](O)[C@H]5O)c(C)c4oc3=O)ccc2OC)c1 [26a, N-(7-((2S,3R,4S,5R)-3,4-dihydroxy-5-methoxy-6,6-dimethyltetrahydro-2H-pyran-2-yloxy)-6-methoxy-8-methyl-2-oxo-2H-chromen-3-yl)-3′,6-dimethoxybiphenyl-3-carboxamide]	58.8 ± 1.3	> 100	6.6	35.4	fold increase in anti-proliferation activity versus the 6-H derivative ([1]; PC-3 cells): 2 fold
COc1cccc(-c2cc(C(=O)Nc3cc4cc(OC(C)C)c(O[C@@H]5OC(C)(C)[C@H](OC)[C@@H](O)[C@H]5O)c(C)c4oc3=O)ccc2OC)c1 [26c, N-(7-((2S,3R,4S,5R)-3,4-dihydroxy-5-methoxy-6,6-dimethyltetrahydro-2H-pyran-2-yloxy)-6-isopropoxy-8-methyl-2-oxo-2H-chromen-3-yl)-3′,6-dimethoxybiphenyl-3-carboxamide]	58.6 ± 5.4	66.9 ± 3.1	14.4 ± 4.2	60.7 ± 9.1	times less active than the corresponding 6-H ([4]; LnCaP cells): ~7 times
COc1cccc(-c2cc(C(=O)Nc3cc4ccc(O[C@@H]5OC(C)(C)[C@H](OC)[C@@H](O)[C@H]5O)c(Cc5ccccc5)c4oc3=O)ccc2OC)c1 [26e, N-(8-benzyl-7-((2R,3R,4S,5R)-3,4-dihydroxy-5-methoxy-6,6-dimethyltetrahydro-2H-pyran-2-yloxy)-2-oxo-2H-chromen-3-yl)-3′,6-dimethoxybiphenyl-3-carboxamide]	> 100	> 100	49.7 ± 25	> 100	
CCCOc1cc2cc(NC(=O)c3cc4ccccc4[nH]3)c(=O)oc2c(C)c1O[C@@H]1OC(C)(C)[C@H](OC)[C@@H](O)[C@H]1O [26j, N-(7-((2S,3R,4S,5R)-3,4-dihydroxy-5-methoxy-6,6-dimethyltetrahydro-2H-pyran-2-yloxy)-8-methyl-2-oxo-6-propoxy-2H-chromen-3-yl)-1H-indole-2-carboxamide]	2.1 ± 0.8	2.1 ± 0.1	1.8 ± 0.7	6.2 ± 1.8	
CO[C@@H]1[C@@H](O)[C@@H](O)[C@H](Oc2ccc3cc(NC(=O)c4cc5ccccc5[nH]4)c(=O)oc3c2-c2ccccc2)OC1(C)C [26n, N-(7-((2R,3R,4S,5R)-3,4-dihydroxy-5-methoxy-6,6-dimethyltetrahydro-2H-pyran-2-yloxy)-2-oxo-8-phenyl-2H-chromen-3-yl)-1H-indole-2-carboxamide]	38.8 ± 8.3	22.9 ± 2.1	27.6 ± 10.8	28 ± 12.1	fold less active than the 8-methyl derivative ([3]; MCF-7 cells): 40 fold
CCCOc1cc2cc(NC(=O)c3ccc(OC)c(-c4cccc(OC)c4)c3)c(=O)oc2c(C)c1O[C@@H]1OC(C)(C)[C@H](OC)[C@@H](O)[C@H]1O [26b, N-(7-((2S,3R,4S,5R)-3,4-dihydroxy-5-methoxy-6,6-dimethyltetrahydro-2H-pyran-2-yloxy)-8-methyl-2-oxo-6-propoxy-2H-chromen-3-yl)-3′,6-dimethoxybiphenyl-3-carboxamide]	> 100	> 100	3 ± 0.6	5.6 ± 5.7	fold increase in anti-proliferation activity versus the 6-H derivative ([1]; PC-3 cells): 10 fold
CCc1c(O[C@@H]2OC(C)(C)[C@H](OC)[C@@H](O)[C@H]2O)ccc2cc(NC(=O)c3ccc(OC)c(-c4cccc(OC)c4)c3)c(=O)oc12 [26h, N-(7-((2R,3R,4S,5R)-3,4-dihydroxy-5-methoxy-6,6-dimethyltetrahydro-2H-pyran-2-yloxy)-8-ethyl-2-oxo-2H-chromen-3-yl)-3′,6-dimethoxybiphenyl-3-carboxamide]	28.6 ± 1.1	41.7 ± 14	1.6 ± 0.3	1.8 ± 0.6	fold increased activity versus the 8-methyl derivative ([1]; PC-3 cells): 10 fold
CC(=O)Oc1ccc(C(=O)Nc2cc3ccc(OCCN(C)C)c(C)c3oc2=O)cc1CC=C(C)C [29e, KU-421, 4-(7-(2-(Dimethylamino)ethoxy)-8-methyl-2-oxo-2H-chromen-3-ylcarbamoyl)-2-(3-methylbut-2-enyl)phenyl acetate]					IC50 ([2]; Table 19, 7-oxyalkylamino and 7-oxypiperidinyl analogues, read-out: IC50, SKBr3): 4.76 ± 0.52 µM; IC50 ([3]; Table 19, 7-oxyalkylamino and 7-oxypiperidinyl analogues, read-out: IC50, MCF-7): 1.32 µM
